Data as given in PMC7093416, “Selective USP7 inhibition elicits cancer cell killing through a p53-dependent mechanism” (Scientific Reports, 2020).

How the values were obtained:
USP7 [1] = biological target: T1, USP7 (Homo sapiens, UniProt Q93009); assay: Live cell treatment and competitive ABPP with HA-Ub-VS; assay type: cell-based; parameters: endogenous in cells; host or cells: MCF7; details: live cell treatment, 6 hr; read-out: IC50, USP7 inhibition in cyto
Method: HA-Ub-VS experiments were performed as previously described in Lamberto et al[29]. Briefly, target engagement lysis buffer (50 mM Tris pH 8.0, 150 mM NaCl, 5 mM MgCl2, 0.5 mM EDTA, 0.5% NP-40, 10% glycerol, 1 mM TCEP, protease and phosphatase inhibitors) was added to cell pellets on ice. Lysate was cleared by centrifugation and diluted to 1.67 mg/mL. Where indicated, 30 μL lysate was then incubated with inhibitors or DMSO for the indicated timepoints. 1 μM HA-Ub-VS was then added to the lysate and incubated at RT for the indicated time points. Labeling reactions were quenched with 4x LDS sample buffer (Thermo Fisher B0007) supplemented with 10% BME, vortexed vigorously, and heated to 95 C for 5 minutes. Samples were resolved by SDS-PAGE and analyzed by Western blot with the indicated antibodies.

USP7 [2] = biological target: T1, USP7; assay: In vitro DUB profiling (Ubiquigent, Ub-Rho), USP7; assay type: biochemical; details: 1 µM, 15-minute pre-treatment
Method: Compounds were screened using the Ubiquigent Drug Profiler SPT system (www.ubiquigent.com/drug-discovery-services/dubprofiler/). Each of 41 purified DUBs was incubated with compound for 15 minutes, then ubiquitin rhodamine 110 (Ub-Rho) was added and percent inhibition determined based on fluorescence relative to a DMSO control.

TC32 cells = assay: Cell viability (CellTiter-Glo) in TC32 cells expressing sgRNA (TP53-KO vs control); assay type: cell-based; details: 3 days
Method: Cells were plated in 384-well culture-treated plates and allowed to settle overnight. After drug treament and appropriate incubation time, cell viability was assessed using the CellTiter-Glo Luminescent Cell Viability Assay (Promega). Luminescence was read on a Fluostar Omega Reader (BMG Labtech).

RPS19 = biological target: T2, RPS19 (Homo sapiens, UniProt P39019); assay: XL177A-DTB chemoproteomic profiling with XL177A competition, RPS19; assay type: binding; details: RPS19 reporter ion intensity
T2 construct: endogenous in cells; host or cells: HEK 293AD lysate
Method: HEK 293AD cells were lysed as described above, and the lysate was cleared by centrifugation. Samples were diluted to 10 mg/mL, and 200 μL lysate (2 mg protein total) was incubated with the indicated concentrations of XL177A for 4 hours at RT, then 2 μM of WH114A for 4 additional hours. SDS was added to a final concentration of 1.2% (27.2 μL of a 10% stock), and denatured by heating to 80 °C for 5 minutes. After cooling to RT, 1125 μL 1X PBS was added to dilute the final SDS concentration to 0.2%. 50 μL streptavidin agarose slurry was added to each sample, followed by incubation at RT for 3 hours. After streptavidin enrichment, samples were washed vigorously (2×0.2% SDS, 3x PBS, 3x ddH2O). After the final wash, all supernatant was removed using a flat-bottom tip, and the resin was flash frozen and stored at −80 °C until workup for TMT labeling.
To remove rapigest, recovered supernatants were acidified with 10% TFA, incubated at 37 °C for 45 minutes, and centrifuged at 14,000 rpm for 15 minutes at 4 °C. Peptides were then desalted by C18, and dried by vacuum centrifugation. Dried peptides were reconstituted in 50 mM pH8.0 TEAB and labeled with TMT reagent at RT for 1 hour. TMT reactions were pooled and treated with hydroxylamine according to the manufacturer’s instructions. Peptide mixtures were then dried, reconstituted in 50 mM ammonium bicarbonate and desalted by SP3[53]. Eluted peptides were then analyzed by nanoflow LC-MS/MS as described[64] with a NanoAcquity UPLC system (Waters, Milford, MA) interfaced to a QExactive HF mass spectrometer (Thermofisher Scientific, San Jose, CA). TMT labeled peptides were injected onto a precolumn (4 cm POROS 10R2, Applied Biosystems, Framingham, MA), resolved on an analytical column (30 µm I.D. × 50 cm packed with 5 µm Monitor C18) and introduced to the mass spectrometer by ESI (spray voltage = 3.5 kV, flow rate ~30 nL/min). The mass spectrometer was operated in data dependent mode such that the 15 most abundant ions in each MS scan (m/z 300–2000, 120 K resolution, target = 3E6, lock mass for 445.120025 enabled) were subjected to MS/MS (m/z 100–2000, 30 K resolution, target = 1E5, max fill time = 100 ms). Dynamic exclusion was selected with a repeat count of 1 and an exclusion time of 30 seconds. MS/MS data was extracted to.mgf using mulitplierz scripts[54],[55] and searched against a forward-reverse human NCBI refseq database using Mascot version 2.6. Search parameters specified fixed carbamidomethylation of cysteine, fixed N-terminal and lysine TMT labelling, and variable oxidation (methionine). Additional multiplierz scripts were used to filter results to 1% FDR and derive protein-level aggregate reporter ion intensities using peptides mapping uniquely into the genome.

[3] = XL177A-DTB pulldown, HEK293AD lysate pre-treated 100nM XL177A
[4] = XL177A-DTB pulldown, HEK293AD lysate pre-treated 1uM XL177A
[5] = XL177A-DTB pulldown, HEK293AD lysate pre-treated 10uM XL177A
[6] = average of Run 1 and Run 2, 100nM XL177A
[7] = average of Run 1 and Run 2, 1uM XL177A
[8] = average of Run 1 and Run 2, 10uM XL177A

T1 sequence (Q93009 whole entry): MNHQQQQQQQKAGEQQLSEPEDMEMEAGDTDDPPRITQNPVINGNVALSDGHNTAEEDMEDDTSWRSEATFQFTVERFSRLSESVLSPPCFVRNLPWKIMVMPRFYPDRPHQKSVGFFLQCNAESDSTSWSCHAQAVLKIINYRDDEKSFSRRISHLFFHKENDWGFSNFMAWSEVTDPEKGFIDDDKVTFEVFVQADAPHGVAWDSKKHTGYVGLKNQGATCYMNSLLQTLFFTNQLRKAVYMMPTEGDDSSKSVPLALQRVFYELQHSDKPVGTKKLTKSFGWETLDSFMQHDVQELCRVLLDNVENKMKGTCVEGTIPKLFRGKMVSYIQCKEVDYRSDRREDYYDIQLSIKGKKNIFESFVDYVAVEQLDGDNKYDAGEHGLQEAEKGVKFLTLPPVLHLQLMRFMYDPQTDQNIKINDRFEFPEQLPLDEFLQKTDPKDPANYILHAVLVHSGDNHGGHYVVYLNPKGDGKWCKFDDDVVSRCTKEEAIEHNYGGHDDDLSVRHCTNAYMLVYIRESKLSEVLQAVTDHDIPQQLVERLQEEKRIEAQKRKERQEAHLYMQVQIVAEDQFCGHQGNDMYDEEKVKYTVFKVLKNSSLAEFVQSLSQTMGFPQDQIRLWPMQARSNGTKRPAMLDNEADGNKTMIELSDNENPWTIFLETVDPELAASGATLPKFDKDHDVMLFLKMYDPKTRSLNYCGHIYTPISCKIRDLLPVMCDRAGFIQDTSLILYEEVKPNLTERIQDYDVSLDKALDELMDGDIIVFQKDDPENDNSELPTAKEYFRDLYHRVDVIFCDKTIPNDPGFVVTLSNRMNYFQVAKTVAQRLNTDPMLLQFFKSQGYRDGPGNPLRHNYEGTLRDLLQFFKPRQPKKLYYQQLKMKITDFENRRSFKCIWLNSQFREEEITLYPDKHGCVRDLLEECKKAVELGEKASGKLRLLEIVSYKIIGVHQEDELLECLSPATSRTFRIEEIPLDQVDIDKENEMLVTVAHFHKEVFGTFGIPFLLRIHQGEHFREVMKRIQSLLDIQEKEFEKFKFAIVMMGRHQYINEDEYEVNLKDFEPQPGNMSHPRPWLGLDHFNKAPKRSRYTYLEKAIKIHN

IC50 (USP7 [1]): 0.039 µM
USP7 enzymatic activity (USP7 [2]): completely inhibited
Run 1 100nM 1 (RPS19; [3]): 201720
Run 1 100nM 2 (RPS19; [3]): 193904
Run 1 100nM 3 (RPS19; [3]): 198261
Run 2 100nM 1 (RPS19; [3]): 185482
Run 2 100nM 2 (RPS19; [3]): 186116
Run 2 100nM 3 (RPS19; [3]): 181339
Run 1 1uM 1 (RPS19; [4]): 206285
Run 1 1uM 2 (RPS19; [4]): 969196
Run 1 1uM 3 (RPS19; [4]): 327663
Run 2 1uM 1 (RPS19; [4]): 160877
Run 2 1uM 2 (RPS19; [4]): 741636
Run 2 1uM 3 (RPS19; [4]): 244076
Run 1 10uM 1 (RPS19; [5]): 152789
Run 1 10uM 2 (RPS19; [5]): 213160
Run 2 10uM 1 (RPS19; [5]): 210280
Run 2 10uM 2 (RPS19; [5]): 197443
AVE 100nM 1 (RPS19; [6]): 193601
AVE 100nM 2 (RPS19; [6]): 190010
AVE 100nM 3 (RPS19; [6]): 189800
AVE 1uM 1 (RPS19; [7]): 183581
AVE 1uM 2 (RPS19; [7]): 855416
AVE 1uM 3 (RPS19; [7]): 285870
AVE 10uM 1 (RPS19; [8]): 181534
AVE 10uM 2 (RPS19; [8]): 205302
Structure (SMILES): CN1CCN(CCC(=O)Nc2ccc3c(=O)n(CC4(O)CCN(C(=O)[C@@H](CCCNC(=O)c5ccc6c(Cl)c7c(nc6c5)CCCC7)Cc5ccccc5)CC4)cnc3c2)CC1 [XL177A]
effect of TP53 KO on growth suppression (TC32 cells): completely rescued TC32 growth except at high doses
